In ChEMBL document CHEMBL3885881, “DrugMatrix”:

Species: Rattus norvegicus
Assay: DrugMatrix - Regimen: Daily Repeat
Format: toxicity, organism-based, Sprague-Dawley
Parameters: regimen Daily Repeat, gender Male, age 6-8 weeks
Conditions: in vivo, iv, vehicle 100 % SALINE; for ABSOLUTE BASOPHIL / ABSOLUTE EOSINOPHIL / ABSOLUTE LYMPHOCYTE / ABSOLUTE MONOCYTE / ABSOLUTE SEGMENTED NEUTROPHIL / BASOPHIL / EOSINOPHIL / ERYTHROCYTE COUNT / HEMATOCRIT / HEMOGLOBIN / LEUKOCYTE COUNT / LYMPHOCYTE / MEAN CORPUSCULAR HEMOGLOBIN / MEAN CORPUSCULAR HEMOGLOBIN CONCENTRATION / MEAN CORPUSCULAR VOLUME / MONOCYTE / NEUTROPHIL / NUCLEATED RED BLOOD CELLS / PLATELET COUNT: tissue Blood; for ALANINE AMINOTRANSFERASE / ALBUMIN / ALKALINE PHOSPHATASE / ASPARTATE AMINOTRANSFERASE / BLOOD UREA NITROGEN / CARBON DIOXIDE / CHLORIDE / CHOLESTEROL / CREATINE PHOSPHOKINASE / CREATININE / GLUCOSE / LACTATE DEHYDROGENASE / LIPASE / PHOSPHORUS / POTASSIUM / SODIUM / TOTAL BILIRUBIN / TOTAL PROTEIN / URIC ACID: tissue Plasma
[1] = 0.07 mg/kg, 72 h, dose level Low, time 3 day
[2] = 0.07 mg/kg, 120 h, dose level Low, time 5 day
[3] = […], 72 h, dose 0.16 mg/Kg, dose level High, time 3 day
[4] = […], 120 h, dose 0.16 mg/Kg, dose level High, time 5 day

CNC(=O)Oc1ccc2c(c1)[C@]1(C)CCN(C)[C@@H]1N2C [PHYSOSTIGMINE] was tested, and the “ABSOLUTE BASOPHIL” value [1] was 0 CELLS/uL, the “ABSOLUTE EOSINOPHIL” value [1] was 271.33 CELLS/uL and the “ABSOLUTE LYMPHOCYTE” value [1] was 11715.67 CELLS/uL. The “ABSOLUTE MONOCYTE” value [1] was 88.33 CELLS/uL, the “ABSOLUTE SEGMENTED NEUTROPHIL” value [1] was 1491.33 CELLS/uL and the BASOPHIL [1] was 0%. For the same molecule, the EOSINOPHIL [1] was 2%, the “ERYTHROCYTE COUNT” value [1] was 5.08 x10E6/uL and the HEMATOCRIT [1] was 32.57%. For the same molecule, the HEMOGLOBIN [1] was 12.27 G/DL, the “LEUKOCYTE COUNT” value [1] was 13.57 x10E3/uL and the LYMPHOCYTE [1] was 86.67%. For the same molecule, the “MEAN CORPUSCULAR HEMOGLOBIN” value [1] was 24.13 pg, the “MEAN CORPUSCULAR HEMOGLOBIN CONCENTRATION” value [1] was 37.67 G/DL and the “MEAN CORPUSCULAR VOLUME” value [1] was 64.1 fL. For the same molecule, the MONOCYTE [1] was 0.67%, the NEUTROPHIL [1] was 10.67% and the “NUCLEATED RED BLOOD CELLS” value [1] was 0 /100WBC. The “PLATELET COUNT” value [1] was 1091 x10E3/uL, the “ALANINE AMINOTRANSFERASE” value [1] was 64.33 u/L and the ALBUMIN [1] was 4.03 G/DL. For the same molecule, the “ALKALINE PHOSPHATASE” value [1] was 342.67 u/L, the “ASPARTATE AMINOTRANSFERASE” value [1] was 99.67 u/L and the “BLOOD UREA NITROGEN” value [1] was 14.67 mg/dL. The “CARBON DIOXIDE” value [1] was 24.67 mmol/L, the CHLORIDE [1] was 105.33 MEQ/L and the CHOLESTEROL [1] was 67.33 mg/dL. The “CREATINE PHOSPHOKINASE” value [1] was 386 u/L, the CREATININE [1] was 0.14 mg/dL and the GLUCOSE [1] was 161.67 mg/dL. The “LACTATE DEHYDROGENASE” value [1] was 95.33 u/L, the LIPASE [1] was 7.67 u/L and the PHOSPHORUS [1] was 12.37 mg/dL. The POTASSIUM [1] was 5.92 MEQ/L, the SODIUM [1] was 144.47 MEQ/L and the “TOTAL BILIRUBIN” value [1] was 0.17 mg/dL. For the same molecule, the “TOTAL PROTEIN” value [1] was 5.73 G/DL, the “URIC ACID” value [1] was 1.23 mg/dL and the “ABSOLUTE BASOPHIL” value [2] was 0 CELLS/uL. The “ABSOLUTE EOSINOPHIL” value [2] was 138.33 CELLS/uL, the “ABSOLUTE LYMPHOCYTE” value [2] was 16178.33 CELLS/uL and the “ABSOLUTE MONOCYTE” value [2] was 247.67 CELLS/uL. The “ABSOLUTE SEGMENTED NEUTROPHIL” value [2] was 2735.67 CELLS/uL, the BASOPHIL [2] was 0% and the EOSINOPHIL [2] was 0.67%. For the same molecule, the “ERYTHROCYTE COUNT” value [2] was 5.42 x10E6/uL, the HEMATOCRIT [2] was 34.33% and the HEMOGLOBIN [2] was 13.27 G/DL. For the same molecule, the “LEUKOCYTE COUNT” value [2] was 19.3 x10E3/uL, the LYMPHOCYTE [2] was 84% and the “MEAN CORPUSCULAR HEMOGLOBIN” value [2] was 24.43 pg. For the same molecule, the “MEAN CORPUSCULAR HEMOGLOBIN CONCENTRATION” value [2] was 38.7 G/DL, the “MEAN CORPUSCULAR VOLUME” value [2] was 63.27 fL and the MONOCYTE [2] was 1.33%. The NEUTROPHIL [2] was 14%, the “NUCLEATED RED BLOOD CELLS” value [2] was 0 /100WBC and the “PLATELET COUNT” value [2] was 1244.33 x10E3/uL. The “ALANINE AMINOTRANSFERASE” value [2] was 50 u/L, the ALBUMIN [2] was 4.33 G/DL and the “ALKALINE PHOSPHATASE” value [2] was 370 u/L. The “ASPARTATE AMINOTRANSFERASE” value [2] was 86.67 u/L, the “BLOOD UREA NITROGEN” value [2] was 22 mg/dL and the “CARBON DIOXIDE” value [2] was 24 mmol/L. The CHLORIDE [2] was 102 MEQ/L, the CHOLESTEROL [2] was 62.33 mg/dL and the “CREATINE PHOSPHOKINASE” value [2] was 479.33 u/L. For the same molecule, the CREATININE [2] was 0.2 mg/dL, the GLUCOSE [2] was 168 mg/dL and the “LACTATE DEHYDROGENASE” value [2] was 93.67 u/L. It also gave an LIPASE [2] of 8 u/L, a PHOSPHORUS [2] of 13.33 mg/dL and a POTASSIUM [2] of 6.49 MEQ/L. The SODIUM [2] was 141.5 MEQ/L, the “TOTAL BILIRUBIN” value [2] was 0.2 mg/dL and the “TOTAL PROTEIN” value [2] was 6.17 G/DL. The “URIC ACID” value [2] was 1.63 mg/dL, the “ABSOLUTE BASOPHIL” value [3] was 0 CELLS/uL and the “ABSOLUTE EOSINOPHIL” value [3] was 107 CELLS/uL. The “ABSOLUTE LYMPHOCYTE” value [3] was 10987.67 CELLS/uL, the “ABSOLUTE MONOCYTE” value [3] was 71.33 CELLS/uL and the “ABSOLUTE SEGMENTED NEUTROPHIL” value [3] was 1134 CELLS/uL. The BASOPHIL [3] was 0%, the EOSINOPHIL [3] was 1% and the “ERYTHROCYTE COUNT” value [3] was 5.42 x10E6/uL. For the same molecule, the HEMATOCRIT [3] was 33.77%, the HEMOGLOBIN [3] was 13 G/DL and the “LEUKOCYTE COUNT” value [3] was 12.3 x10E3/uL. For the same molecule, the LYMPHOCYTE [3] was 88.33%, the “MEAN CORPUSCULAR HEMOGLOBIN” value [3] was 24.03 pg and the “MEAN CORPUSCULAR HEMOGLOBIN CONCENTRATION” value [3] was 38.57 G/DL. The “MEAN CORPUSCULAR VOLUME” value [3] was 62.37 fL, the MONOCYTE [3] was 0.67% and the NEUTROPHIL [3] was 10%. For the same molecule, the “NUCLEATED RED BLOOD CELLS” value [3] was 0 /100WBC, the “PLATELET COUNT” value [3] was 1231 x10E3/uL and the “ALANINE AMINOTRANSFERASE” value [3] was 56.33 u/L. For the same molecule, the ALBUMIN [3] was 4.17 G/DL, the “ALKALINE PHOSPHATASE” value [3] was 305 u/L and the “ASPARTATE AMINOTRANSFERASE” value [3] was 87.33 u/L. The “BLOOD UREA NITROGEN” value [3] was 15.33 mg/dL, the “CARBON DIOXIDE” value [3] was 27.67 mmol/L and the CHLORIDE [3] was 107 MEQ/L. The CHOLESTEROL [3] was 78.67 mg/dL, the “CREATINE PHOSPHOKINASE” value [3] was 187.33 u/L and the CREATININE [3] was 0.13 mg/dL. The GLUCOSE [3] was 159.33 mg/dL, the “LACTATE DEHYDROGENASE” value [3] was 115.33 u/L and the LIPASE [3] was 8.67 u/L. For the same molecule, the PHOSPHORUS [3] was 13.93 mg/dL, the POTASSIUM [3] was 6.15 MEQ/L and the SODIUM [3] was 147.9 MEQ/L. For the same molecule, the “TOTAL BILIRUBIN” value [3] was 0.17 mg/dL, the “TOTAL PROTEIN” value [3] was 5.83 G/DL and the “URIC ACID” value [3] was 1.43 mg/dL. For the same molecule, the “ABSOLUTE BASOPHIL” value [4] was 0 CELLS/uL, the “ABSOLUTE EOSINOPHIL” value [4] was 171.67 CELLS/uL and the “ABSOLUTE LYMPHOCYTE” value [4] was 8706.33 CELLS/uL. For the same molecule, the “ABSOLUTE MONOCYTE” value [4] was 43.33 CELLS/uL, the “ABSOLUTE SEGMENTED NEUTROPHIL” value [4] was 3645.33 CELLS/uL and the BASOPHIL [4] was 0%. For the same molecule, the EOSINOPHIL [4] was 1.33%, the “ERYTHROCYTE COUNT” value [4] was 5.7 x10E6/uL and the HEMATOCRIT [4] was 35.8%. The HEMOGLOBIN [4] was 13.57 G/DL, the “LEUKOCYTE COUNT” value [4] was 12.57 x10E3/uL and the LYMPHOCYTE [4] was 68.67%. The “MEAN CORPUSCULAR HEMOGLOBIN” value [4] was 23.8 pg, the “MEAN CORPUSCULAR HEMOGLOBIN CONCENTRATION” value [4] was 37.9 G/DL and the “MEAN CORPUSCULAR VOLUME” value [4] was 62.8 fL. The MONOCYTE [4] was 0.33%, the NEUTROPHIL [4] was 29.67% and the “NUCLEATED RED BLOOD CELLS” value [4] was 0 /100WBC. The “PLATELET COUNT” value [4] was 1062 x10E3/uL, the “ALANINE AMINOTRANSFERASE” value [4] was 52.67 u/L and the ALBUMIN [4] was 4.03 G/DL. The “ALKALINE PHOSPHATASE” value [4] was 416.33 u/L, the “ASPARTATE AMINOTRANSFERASE” value [4] was 80 u/L and the “BLOOD UREA NITROGEN” value [4] was 15 mg/dL. The “CARBON DIOXIDE” value [4] was 26 mmol/L, the CHLORIDE [4] was 104 MEQ/L and the CHOLESTEROL [4] was 60 mg/dL. The “CREATINE PHOSPHOKINASE” value [4] was 226.67 u/L, the CREATININE [4] was 0.22 mg/dL and the GLUCOSE [4] was 181 mg/dL. For the same molecule, the “LACTATE DEHYDROGENASE” value [4] was 200 u/L, the LIPASE [4] was 7.67 u/L and the PHOSPHORUS [4] was 13.3 mg/dL. For the same molecule, the POTASSIUM [4] was 6.09 MEQ/L, the SODIUM [4] was 146.53 MEQ/L and the “TOTAL BILIRUBIN” value [4] was 0.13 mg/dL. The “TOTAL PROTEIN” value [4] was 6.43 G/DL and the “URIC ACID” value [4] was 1.77 mg/dL.
